The values that follow come from US6972296B2, “Carboxylic acid derivatives that inhibit the binding of integrins to their receptors” (Encysive Pharmaceuticals Inc., priority 1999, dated 2005).

This experiment addresses T1, α4β1 integrin (Homo sapiens, UniProt P05556+P13612).
T1 construct: endogenous in cells; host or cells: Ramos cells
The experiment is described as follows: Adhesion of calcein-labeled Ramos cells to CS1 (fibronectin) peptide conjugated ovalbumin. It counts as cell-based. The following applies: Ramos cell adhesion to CS1 conjugated ovalbumin. An outline of the steps:
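Calcein AM-labelled Ramos cells (2.5×10^5/well) with compound, up to 100 μM, added to plates coated with CS1 peptide–ovalbumin (0.5 μg/ml) and blocked with 3% BSA. Binding buffer TBS pH 7.5 with 1 mM each MgCl2, CaCl2, MnCl2; 30 min, 37 °C. After washes, adherent cells lysed and read fluorometrically; […].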

Where [1] appears, read: Table 7, dose required to give 50% inhibition.

T1 sequence (P13612 34-1032): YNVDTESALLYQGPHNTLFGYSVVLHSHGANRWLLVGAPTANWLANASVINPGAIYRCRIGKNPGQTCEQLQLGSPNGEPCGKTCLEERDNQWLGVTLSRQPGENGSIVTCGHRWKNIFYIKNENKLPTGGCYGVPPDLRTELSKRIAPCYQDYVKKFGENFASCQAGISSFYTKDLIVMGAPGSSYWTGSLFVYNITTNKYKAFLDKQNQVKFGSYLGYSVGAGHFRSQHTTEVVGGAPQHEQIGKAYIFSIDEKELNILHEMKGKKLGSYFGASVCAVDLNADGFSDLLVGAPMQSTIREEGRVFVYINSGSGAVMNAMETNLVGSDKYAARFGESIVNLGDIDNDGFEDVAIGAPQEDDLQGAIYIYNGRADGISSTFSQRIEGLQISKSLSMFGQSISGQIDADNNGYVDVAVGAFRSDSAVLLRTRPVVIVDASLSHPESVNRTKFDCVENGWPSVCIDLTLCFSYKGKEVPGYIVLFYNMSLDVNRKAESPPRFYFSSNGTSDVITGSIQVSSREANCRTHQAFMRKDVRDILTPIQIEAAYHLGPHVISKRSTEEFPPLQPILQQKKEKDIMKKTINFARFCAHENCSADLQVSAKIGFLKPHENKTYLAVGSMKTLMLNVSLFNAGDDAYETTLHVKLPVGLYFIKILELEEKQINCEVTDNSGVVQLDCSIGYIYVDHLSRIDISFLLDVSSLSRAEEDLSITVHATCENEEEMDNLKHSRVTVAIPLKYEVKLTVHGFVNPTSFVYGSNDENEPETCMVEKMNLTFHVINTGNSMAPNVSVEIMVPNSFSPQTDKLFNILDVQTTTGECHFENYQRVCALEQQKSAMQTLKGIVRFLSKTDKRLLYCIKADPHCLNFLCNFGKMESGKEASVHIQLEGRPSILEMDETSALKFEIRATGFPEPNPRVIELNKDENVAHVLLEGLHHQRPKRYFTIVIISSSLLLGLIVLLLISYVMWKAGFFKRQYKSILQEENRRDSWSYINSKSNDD
T1 sequence (P05556 21-798): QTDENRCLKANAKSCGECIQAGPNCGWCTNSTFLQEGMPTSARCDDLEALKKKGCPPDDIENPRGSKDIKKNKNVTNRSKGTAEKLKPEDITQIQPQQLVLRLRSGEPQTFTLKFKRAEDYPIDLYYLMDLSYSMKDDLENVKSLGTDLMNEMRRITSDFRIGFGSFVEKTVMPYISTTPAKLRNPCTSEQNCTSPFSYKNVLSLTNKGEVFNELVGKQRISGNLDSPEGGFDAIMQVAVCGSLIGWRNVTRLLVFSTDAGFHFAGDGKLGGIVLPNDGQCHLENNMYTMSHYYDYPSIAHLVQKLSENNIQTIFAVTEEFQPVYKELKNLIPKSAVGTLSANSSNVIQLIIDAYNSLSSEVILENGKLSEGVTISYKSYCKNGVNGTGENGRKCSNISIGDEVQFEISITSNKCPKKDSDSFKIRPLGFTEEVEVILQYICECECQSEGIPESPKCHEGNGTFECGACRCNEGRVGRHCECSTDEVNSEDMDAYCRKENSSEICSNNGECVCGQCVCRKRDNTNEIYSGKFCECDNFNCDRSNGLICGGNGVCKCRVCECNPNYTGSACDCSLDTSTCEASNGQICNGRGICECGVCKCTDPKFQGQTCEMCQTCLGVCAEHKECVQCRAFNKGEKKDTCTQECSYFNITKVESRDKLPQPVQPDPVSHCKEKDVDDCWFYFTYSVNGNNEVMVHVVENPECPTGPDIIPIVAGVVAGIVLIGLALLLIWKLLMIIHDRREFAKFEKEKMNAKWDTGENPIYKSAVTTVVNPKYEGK

Consider `O=C(O)CC(NC(=O)Nc1c(O)ccn(Cc2ccccc2Cl)c1=O)c1cc2ccccc2o1` (centres unmarked), for which the IC50 (usually the concentration that inhibits the measured activity by half) (Table 6, 30 minutes at 37° C.) was 0.14 µM.
Still for that read-out and setting: to `Cc1cn(Cc2ccccc2Cl)c(=O)c(NC(=O)NC(CC(=O)O)c2ccc(-c3ccccc3)cc2)c1O` (centres unmarked) belongs 0.13 µM.
Consider `COc1ccc2cc(C(CC(=O)O)NC(=O)Nc3c(O)c(C)cn(Cc4c(C)cccc4Cl)c3=O)ccc2c1` (centres unmarked), for which the IC50 (Table 6, 30 minutes at 37° C.) is 0.035 µM.
The same measure, in the same setting: under `COc1ccc2cc(C(CC(=O)O)NC(=O)Nc3c(O)ccn(Cc4ccccc4Cl)c3=O)ccc2c1` (centres unmarked) stands 0.015 µM; under `O=C(O)CC(NC(=O)Nc1c(O)ccn(Cc2ccccc2Cl)c1=O)c1cccs1` (centres unmarked), 0.03 µM.
Still for that read-out and setting: under `O=C(O)C[C@@H](Cc1cccc2ccccc12)NC(=O)Nc1c(O)ccn(Cc2ccccc2Cl)c1=O` stands 2.5 µM; under `O=C(O)C[C@@H](Cc1ccccc1Cl)NC(=O)Nc1c(O)ccn(Cc2ccccc2Cl)c1=O`, 0.7 µM.
On the same count and under the same terms, to `CCCCOc1cccc([C@H](CC(=O)O)NC(=O)Nc2c(O)c3c(n(Cc4ccccc4Cl)c2=O)CCC3)c1` belongs 0.02 µM; to `Cc1ccc([C@H](CC(=O)O)NC(=O)Nc2c(O)c(C)cn(Cc3cc(OC(C)C)ccc3Cl)c2=O)cc1`, 0.007 µM.
On to `COCCOc1cccc(Cl)c1Cn1c2c(c(O)c(NC(=O)N[C@@H](CC(=O)O)c3ccc(C)cc3)c1=O)CCC2`, for which, under setting [1], the IC50 was 0.006 µM.
As for `CCOc1cccc([C@H](CC(=O)O)NC(=O)Nc2c(O)c3c(n(Cc4c(Cl)cccc4OCCOC)c2=O)CCC3)c1`, the IC50 under setting [1] was 0.004 µM.
Regarding `CCOc1cccc(Cl)c1Cn1c2c(c(O)c(NC(=O)N[C@@H](CC(=O)O)c3cccc(OC4CCCC4)c3)c1=O)CCC2`, the IC50 under setting [1] was 0.006 µM.
Consider `CCOc1cccc(Cl)c1Cn1c(C)c(C)c(O)c(NC(=O)N[C@@H](CC(=O)O)c2ccc(C)cc2)c1=O`, for which the IC50 under setting [1] was 0.004 µM.
On the same count and under the same terms, under `CCOc1cccc([C@H](CC(=O)O)NC(=O)Nc2c(O)c(C)c(C)n(Cc3c(Cl)cccc3OCC)c2=O)c1` stands 0.004 µM; under `CCOc1cccc(Cl)c1Cn1cc(C)c(O)c(NC(=O)N[C@@H](CC(=O)O)c2cccc(C(F)(F)F)c2)c1=O`, 0.003 µM.
In the case of `CCOc1cccc([C@H](CC(=O)O)NC(=O)Nc2c(O)c(CC)cn(Cc3c(Cl)cccc3OCC)c2=O)c1`, the IC50 (Table 6, 30 minutes at 37° C.) is 0.004 µM.
On the same count and under the same terms, to `CCCc1cn(Cc2c(Cl)cccc2OC)c(=O)c(NC(=O)N[C@@H](CC(=O)O)c2ccc(C)c(C)c2)c1O` belongs 0.017 µM.
Same read-out and setting: under `COc1cccc(Cl)c1Cn1cc(C)c(O)c(NC(=O)N[C@@H](CC(=O)O)c2ccc(C)c(C)c2)c1=O` stands 0.003 µM; under `CCCc1cn(Cc2c(Cl)cccc2OC)c(=O)c(NC(=O)N[C@@H](CC(=O)O)c2ccc(C)c(OC)c2)c1O`, 0.015 µM; under `CCOc1cccc([C@H](CC(=O)O)NC(=O)Nc2c(O)c(C)cn(Cc3c(Cl)cccc3OC)c2=O)c1`, 0.003 µM.
Still for that read-out and setting: to `COc1cc([C@H](CC(=O)O)NC(=O)Nc2c(O)c(C)cn(Cc3c(Cl)cccc3OC)c2=O)ccc1C` belongs 0.006 µM; to `CCCc1cn(Cc2c(Cl)cccc2OC)c(=O)c(NC(=O)N[C@@H](CC(=O)O)c2ccc(OCC)c(OCC)c2)c1O`, 0.003 µM.
`Cc1ccc([C@H](CC(=O)O)NC(=O)Nc2c(O)c3c(n(Cc4c(C)cccc4Cl)c2=O)CCC3)cc1`: the IC50 (Table 6, 30 minutes at 37° C.) is 0.02 µM.
`Cc1cn(Cc2c(C)cccc2Cl)c(=O)c(NC(=O)N[C@@H](CC(=O)O)c2ccc3c(c2)CCO3)c1O`: under setting [1], the half-inhibitory concentration (IC50) was 0.005 µM.
Turning to `CCOc1ccc([C@H](CC(=O)O)NC(=O)Nc2c(O)c(C)cn(Cc3c(C)cccc3Cl)c2=O)cc1OCC`, for the setting “Table 6, 30 minutes at 37° C.”, the IC50 is 0.003 µM.
The same measure, in the same setting: to `Cn1ccc2cc([C@H](CC(=O)O)NC(=O)Nc3c(O)ccn(Cc4ccccc4Cl)c3=O)ccc21` belongs 0.003 µM; to `O=C(O)C[C@H](NC(=O)Nc1c(O)ccn(Cc2ccccc2Cl)c1=O)c1cccc(OC2CCCC2)c1`, 0.005 µM; to `O=C(O)C[C@H](NC(=O)Nc1c(O)ccn(Cc2ccccc2Cl)c1=O)c1cccc(OC(F)(F)C(F)F)c1`, 0.015 µM.
Same read-out and setting: to `COc1ccc2cc([C@H](CC(=O)O)NC(=O)Nc3c(O)ccn(Cc4ccccc4Cl)c3=O)ccc2c1` belongs 0.015 µM.
Take `O=C(O)C[C@H](NC(=O)Nc1c(O)c2c(n(Cc3ccccc3Cl)c1=O)CCC2)c1ccc2c(c1)CCO2`: under setting [1], the IC50 was 0.002 µM.
Still for that read-out and setting: to `CCn1c(=O)n(CC)c2cc([C@H](CC(=O)O)NC(=O)Nc3c(O)c4c(n(Cc5ccccc5Cl)c3=O)CCC4)ccc21` belongs 0.004 µM; to `O=C(O)C[C@H](NC(=O)Nc1c(O)c2c(n(Cc3ccccc3Cl)c1=O)CCC2)c1cccc(OC2CC2)c1`, 0.004 µM.
Same read-out and setting: to `O=C(O)C[C@H](NC(=O)Nc1c(O)c2c(n(Cc3ccccc3Cl)c1=O)CCC2)c1ccccc1` belongs 0.008 µM.
For the molecule `O=C(O)C[C@H](NC(=O)Nc1c(O)c2c(n(Cc3ccccc3Cl)c1=O)CCC2)c1cccc(OCC(F)(F)F)c1`, the IC50 (Table 6, 30 minutes at 37° C.) was 0.03 µM.
Same read-out and setting: under `CCOc1cccc([C@H](CC(=O)O)NC(=O)Nc2c(O)c3c(n(Cc4ccccc4Cl)c2=O)CCC3)c1` stands 0.003 µM; under `CCOc1ccc([C@H](CC(=O)O)NC(=O)Nc2c(O)c3c(n(Cc4ccccc4Cl)c2=O)CCC3)cc1OCC`, 0.003 µM.
Turning to `O=C(O)C[C@H](NC(=O)Nc1c(O)c2c(n(Cc3ccccc3Cl)c1=O)CCC2)c1cccc(OC2CCCC2)c1`, the IC50 under setting [1] is 0.007 µM.
For `Cc1ccc([C@H](CC(=O)O)NC(=O)Nc2c(O)c(C(C)C)cn(Cc3ccccc3Cl)c2=O)cc1`, where the note is “Table 6, 30 minutes at 37° C.”, the IC50 was 0.06 µM.
For `COc1cc([C@H](CC(=O)O)NC(=O)Nc2c(O)c(C)cn(Cc3ccccc3Cl)c2=O)cc(OC)c1C`, under setting [1], the IC50 is 0.012 µM.
Consider `COc1cccc([C@H](CC(=O)O)NC(=O)Nc2c(O)c(C)cn(Cc3ccccc3Cl)c2=O)c1`, for which, for the setting “Table 6, 30 minutes at 37° C.”, the IC50 is 0.003 µM.
As for `Cc1cn(Cc2ccccc2Cl)c(=O)c(NC(=O)N[C@@H](CC(=O)O)c2cccc(OC(C)C)c2)c1O`, the 50% inhibitory concentration (IC50) (Table 6, 30 minutes at 37° C.) was 0.003 µM.
Still for that read-out and setting: to `CCOc1cc(OCC)cc([C@H](CC(=O)O)NC(=O)Nc2c(O)c(C)cn(Cc3ccccc3Cl)c2=O)c1` belongs 0.003 µM; to `Cc1cn(Cc2ccccc2Cl)c(=O)c(NC(=O)N[C@@H](CC(=O)O)c2ccc3c(ccn3C)c2)c1O`, 0.003 µM; to `Cc1cn(Cc2ccccc2Cl)c(=O)c(NC(=O)N[C@@H](CC(=O)O)c2cccc(OC3CCCC3)c2)c1O`, 0.015 µM.
Take `Cc1cn(Cc2ccccc2Cl)c(=O)c(NC(=O)N[C@@H](CC(=O)O)c2ccc(OC(F)(F)F)cc2)c1O`: the IC50 (Table 6, 30 minutes at 37° C.) was 0.07 µM.
On to `Cc1ccc([C@H](CC(=O)O)NC(=O)Nc2c(O)c(C)cn(Cc3ccccc3Cl)c2=O)cc1C`, for which the IC50 (Table 6, 30 minutes at 37° C.) is 0.015 µM.
For `Cc1cn(Cc2ccccc2Cl)c(=O)c(NC(=O)N[C@@H](CC(=O)O)c2cccc(OCC(F)(F)F)c2)c1O`, for the setting “Table 6, 30 minutes at 37° C.”, the IC50 was 0.015 µM.
The same measure, in the same setting: to `Cc1cn(Cc2ccccc2Cl)c(=O)c(NC(=O)N[C@@H](CC(=O)O)c2cccc(C(F)(F)F)c2)c1O` belongs 0.01 µM.
On to `COc1ccc2cc([C@H](CC(=O)O)NC(=O)Nc3c(O)c(C)cn(Cc4ccccc4Cl)c3=O)ccc2c1`, for which, under “Table 6, 30 minutes at 37° C.”, the IC50 is 0.005 µM.
The same measure, in the same setting: under `Cc1cn(Cc2ccccc2Cl)c(=O)c(NC(=O)N[C@@H](CC(=O)O)c2cccc(OC(F)(F)F)c2)c1O` stands 0.01 µM.
Still for that read-out and setting: under `CCOc1cccc([C@H](CC(=O)O)NC(=O)Nc2c(O)c(C)c(C)n(Cc3ccccc3Cl)c2=O)c1` stands 0.03 µM.
The same measure, in the same setting: under `Cc1ccc([C@H](CC(=O)O)NC(=O)Nc2c(O)c(C3CC3)cn(Cc3ccccc3Cl)c2=O)cc1` stands 0.02 µM.
`Cc1ccc([C@H](CC(=O)O)NC(=O)Nc2c(O)c(C)cn(Cc3c(F)cccc3C(F)(F)F)c2=O)cc1`: the IC50 (Table 6, 30 minutes at 37° C.) is 0.1 µM.
`Cc1ccc([C@H](CC(=O)O)NC(=O)Nc2c(O)c(C)cn(Cc3c(Cl)cccc3Cl)c2=O)cc1`: the IC50 (Table 6, 30 minutes at 37° C.) was 0.02 µM.
On the same count and under the same terms, to `Cc1ccc([C@H](CC(=O)O)NC(=O)Nc2c(O)c(C)cn(Cc3c(F)cccc3F)c2=O)cc1` belongs 0.025 µM; to `Cc1ccc([C@H](CC(=O)O)NC(=O)Nc2c(O)c(C)cn(Cc3cccc(Cl)c3)c2=O)cc1`, 0.02 µM; to `COc1cc(Cn2cc(C)c(O)c(NC(=O)N[C@@H](CC(=O)O)c3ccc(C)cc3)c2=O)cc(OC)c1`, 0.07 µM.
On the same count and under the same terms, to `Cc1ccc([C@H](CC(=O)O)NC(=O)Nc2c(O)c3c(n(Cc4ccc(Cl)cc4)c2=O)CCC3)cc1` belongs 0.05 µM; to `COc1ccc(C(C)=O)cc1Cn1ccc(O)c(NC(=O)N[C@@H](CC(=O)O)c2ccc(C)cc2)c1=O`, 0.033 µM.
`Cc1ccc([C@H](CC(=O)O)NC(=O)Nc2c(O)c(C)cn(Cc3cc(F)ccc3C)c2=O)cc1`: for the setting “Table 6, 30 minutes at 37° C.”, the IC50 was 0.02 µM.
Turning to `CCOc1cccc(Cl)c1Cn1nc(C)c(O)c(NC(=O)N[C@@H](CC(=O)O)c2ccc(C)cc2)c1=O`, the IC50 under setting [1] was 0.007 µM.
Still for that read-out and setting: under `CCOc1cccc(Cl)c1Cn1nc(C)c(O)c(NC(=O)N[C@@H](CC(=O)O)c2cccc(OC(C)C)c2)c1=O` stands 0.002 µM.
Consider `Cc1ccc([C@H](CC(=O)O)NC(=O)Nc2c(O)c(C)nn(Cc3ccccc3Cl)c2=O)cc1`, for which the IC50 (Table 6, 30 minutes at 37° C.) was 0.018 µM.
Same read-out and setting: to `CCOc1ccc([C@H](CC(=O)O)NC(=O)Nc2c(O)c(C)nn(Cc3ccccc3Cl)c2=O)cc1OCC` belongs 0.003 µM.
As to `CCOc1cccc([C@H](CC(=O)O)NC(=O)Nc2c(O)c(C)nn(Cc3ccccc3Cl)c2=O)c1`, the IC50 (Table 6, 30 minutes at 37° C.) is 0.005 µM.
Still for that read-out and setting: to `CCOc1cc(OCC)cc([C@H](CC(=O)O)NC(=O)Nc2c(O)c(C)nn(Cc3ccccc3Cl)c2=O)c1` belongs 0.01 µM; to `Cc1ccc([C@H](CC(=O)O)NC(=O)Nc2c(O)ccn(Cc3cccc(S(C)(=O)=O)c3)c2=O)cc1`, 0.025 µM.
Same read-out and setting: to `CSc1cccc(Cn2ccc(O)c(NC(=O)N[C@@H](CC(=O)O)c3ccc(C)cc3)c2=O)c1` belongs 0.02 µM; to `Cc1ccc(Cn2cc(C)c(O)c(NC(=O)N[C@@H](CC(=O)O)c3ccc(C)cc3)c2=O)cc1`, 0.15 µM; to `Cc1ccc([C@H](CC(=O)O)NC(=O)Nc2c(O)c(C)cn([C@@H](C)c3ccccc3)c2=O)cc1`, 1.5 µM.
On to `CCOc1cccc([C@H](CC(=O)O)NC(=O)Nc2c(O)c(Cl)cn(Cc3c(Cl)cccc3OCC)c2=O)c1`, for which, under setting [1], the IC50 is 0.003 µM.
